Experimental data: patent US9976141B2, “Compositions and methods for inhibiting gene expression of Hif2alpha” (Arrowhead Madison Inc., priority 2015, dated 2018)

System: human (tumor) Hif2α (EPAS1) mRNA
Test: Hif2α knockdown in orthotopic RCC tumor bearing mice, single injection of RNAi trigger-delivery polymer conjugate, RT-qPCR (Table 7)
Type: in vivo
Conditions: single tail vein injection, relative to isotonic glucose
Procedure, shortened: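 A single intravenous dose of Hif2α RNAi trigger–delivery polymer conjugate, or isotonic glucose vehicle, was given to nude mice with subcapsular A498-SEAP renal tumours (about 5–6 weeks old). At the indicated time, tumour RNA was assayed by biplex TaqMan qPCR against CycA, and relative expression was calculated by ΔΔCT versus vehicle.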

[1] = RNAi trigger 50 μg, polymer 064 125 μg
[2] = RNAi trigger 150 μg, polymer 100A 300 μg

## AD03255 (antisense UUUCAUGAAAUCGUUACGUUGAT; sense AACGUAACGAUUUCAUGAAAT; Hif2alpha RNAi agent antisense strand; modified_base 2,4,6,8,14 /mod_base = “2′-deoxy-2′-fluoro corresponding nucleoside”; modified_base 1,3,5,7,9,10,11,12,13,15,16,17,18,19,20,21,22 /mod_base = “2′-O-methyl corresponding nucleoside”; modified_base 23 /mod_base = “3′-3′-linked nucleotide”; modified_base 2,3,22,23 /mod_base = “5′-phosphorothioate corresponding nucleotide”; Hif2alpha RNAi agent sense strand; modified_base 8,9,10 /mod_base = “2′-deoxy-2′-fluoro corresponding nucleoside”; modified_base 1,2,3,4,5,6,7,11,12,13,14,15,16,17,18,19,20 /mod_base = “2′-O-methyl corresponding nucleoside”)
[1]
  Relative Expression day 4 (Hif2α mRNA in kidney tumor): 0.264

## AD02074 (antisense TUUCAUGAAAUCGUUACGUTT; sense ACGUAACGAUUUCAUGAAAT; Hif2alpha RNAi agent antisense strand; modified_base 2,4,6,8,10,14,16,18 /mod_base = “2′-deoxy-2′-fluoro corresponding nucleoside”; modified_base 3,5,7,9,11,12,13,15,17,19 /mod_base = “2′-O-methyl corresponding nucleoside”; modified_base 2,3,21 /mod_base = “5′-phosphorothioate corresponding nucleotide”; Hif2alpha RNAi agent sense strand; modified_base 1,3,5,7,8,9,11,13,15,17,19 /mod_base = “2′-deoxy-2′-fluoro corresponding nucleoside”; modified_base 2,4,6,10,12,14,16,18 /mod_base = “2′-O-methyl corresponding nucleoside”; modified_base 20 /mod_base = “3′-3′-linked nucleotide”; modified_base 1)
[1]
  Relative Expression day 4 (Hif2α mRNA in kidney tumor): 0.566

## AD03191 (antisense AGUAAAACAAUUGUGUACUUUAA; sense AAAGUACACAAUUGUUUUACT; Hif2alpha RNAi agent antisense strand; modified_base 2,4,6,8,10,14,16,18 /mod_base = “2′-deoxy-2′-fluoro corresponding nucleoside”; modified_base 1,3,5,7,9,11,12,13,15,17,19,20,21,22,23 /mod_base = “2′-O-methyl corresponding nucleoside”; modified_base 2,3,22,23 /mod_base = “5′-phosphorothioate corresponding nucleotide”; Hif2alpha RNAi agent sense strand; modified_base 7,9,10,11 /mod_base = “2′-deoxy-2′-fluoro corresponding nucleoside”; modified_base 1,2,3,4,5,6,8,12,13,14,15,16,17,18,19,20 /mod_base = “2′-O-methyl corresponding nucleoside”; modified_base 21 /mod_base = “3′-3′-linked nucleoti)
[1]
  Relative Expression day 4 (Hif2α mRNA in kidney tumor): 0.307

## AD01411 (antisense TUUCAUGAAAUCGUUACGUCGGCUAU; sense UAUAUCGACGUAACGAUUUCAUGAAA; Hif2alpha RNAi agent antisense strand; modified_base 25 modified base = “2′-hydroxy corresponding nucleoside”; modified_base 2,4,6,8,10,12,14,16,18,20 /mod_base = “2′-deoxy-2′-fluoro corresponding nucleoside”; modified_base 3,5,7,11,13,15,17,19,21,22,23,24,26 /mod_base = “2′-O-methyl corresponding nucleoside”; modified_base 9 /mod_base = “2′-3′ seco corresponding nucleotide”; modified_base 2,24 /m; Hif2alpha RNAi agent sense strand; modified_base 2,4 modified base = “2′-hydroxy corresponding nucleoside”; modified_base 6,8,10,12,14,16,18,20,22,24,26 /mod_base = “2′-deoxy-2′-fluoro correspondi)
[2]
  Relative Expression day 4 (Hif2α mRNA in kidney tumor): 0.36

## AD03188 (antisense AGUAAAACAAUUGUGUACUUU; sense AGUACACAAUUGUUUUACUT; Hif2alpha RNAi agent antisense strand; modified_base 2,4,6,8,10,14,16,18 /mod_base = “2′-deoxy-2′-fluoro corresponding nucleoside”; modified_base 1,3,5,7,9,11,12,13,15,17,19,20,21 /mod_base = “2′-O-methyl corresponding nucleoside”; modified_base 2,3,20,21 /mod_base = “5′-phosphorothioate corresponding nucleotide”; Hif2alpha RNAi agent sense strand; modified_base 3,5,7,8,9,11,13,17 /mod_base = “2′-deoxy-2′-fluoro corresponding nucleoside”; modified_base 1,2,4,6,10,12,14,15,16,18,19 /mod_base = “2′-O-methyl corresponding nucleoside”; modified_base 20 /mod_base = “3′-3′-linked nucleotide”; modi)
[1]
  Relative Expression day 4 (Hif2α mRNA in kidney tumor): 0.308

## AD01257 (antisense TUUCAUGAAAUCGUUACGUTT; sense ACGUAACGAUUUCAUGAAAT; Hif2alpha RNAi agent antisense strand; modified_base 2,4,6,8,10,12,14,16,18 /mod_base = “2′-deoxy-2′-fluoro corresponding nucleoside”; modified_base 3,5,7,11,13,15,17,19 /mod_base = “2′-O-methyl corresponding nucleoside”; modified_base 9 /mod_base = “2′-3′ seco corresponding nucleotide”; modified_base 21 /mod_base = “5′-phosphorothioate corresponding nucleotide”; Hif2alpha RNAi agent sense strand; modified_base 1,3,5,7,9,11,13,15,17,19 /mod_base = “2′-deoxy-2′-fluoro corresponding nucleoside”; modified_base 2,4,6,8,10,12,14,16,18 /mod_base = “2′-O-methyl corresponding nucleoside”; modified_b)
RNAi trigger 80 μg, polymer 126 400 μg
  Relative Expression day 4 (Hif2α mRNA in kidney tumor): 0.24

## AD01659 (antisense TUUCAUGAAAUCGUUACGUTT; sense ACGUAACGAUUUCAUGAAAT; Hif2alpha RNAi agent antisense strand; modified_base 2,4,6,8,10,12,14,15,18 /mod_base = “2′-deoxy-2′-fluoro corresponding nucleoside”; modified_base 3,5,7,9,11,13,16,17,19 /mod_base = “2′-O-methyl corresponding nucleoside”; modified_base 2,3,21 /mod_base = “5′-phosphorothioate corresponding nucleotide”; Hif2alpha RNAi agent sense strand; modified_base 1,3,4,7,9,11,13,15,17,19 /mod_base = “2′-deoxy-2′-fluoro corresponding nucleoside”; modified_base 2,5,6,8,10,12,14,16,18 /mod_base = “2′-O-methyl corresponding nucleoside”; modified_base 20 /mod_base = “3′-3′-linked nucleotide”; modified_base 1)
RNAi trigger 100 μg, polymer 100A 250 μg
  Relative Expression day 4 (Hif2α mRNA in kidney tumor): 0.249

## AD03265 (antisense UUUCAUGAAAUCGUUACGUUG; sense UAUACGUAACGAUUUCAUGAAAT; Hif2alpha RNAi agent antisense strand; modified_base 2,4,6,8,14 /mod_base = “2′-deoxy-2′-fluoro corresponding nucleoside”; modified_base 1,3,5,7,9,10,11,12,13,15,16,17,18,19,20,21 /mod_base = “2′-O-methyl corresponding nucleoside”; modified_base 2,3,20,21 /mod_base = “5′-phosphorothioate corresponding nucleotide”; Hif2alpha RNAi agent sense strand; modified_base 2 modified base = “2′-hydroxy corresponding nucleoside”; modified_base 10,11,12 /mod_base = “2′-deoxy-2′-fluoro corresponding nucleoside”; modified_base 1,3,4,5,6,7,8,9,13,14,15,16,17,18,19,20,21,22 /mod_base = “2′-O-methyl correspon)
[1]
  Relative Expression day 4 (Hif2α mRNA in kidney tumor): 0.294

## AD01404 (antisense TUUCAUGAAAUCGUUACGUCGGCUAU; sense UAUAUCGACGUAACGAUUUCAUGAAA; Hif2alpha RNAi agent antisense strand; modified_base 25 modified base = “2′-hydroxy corresponding nucleoside”; modified_base 2,4,6,10,12,14,16,18,20 /mod_base = “2′-deoxy-2′-fluoro corresponding nucleoside”; modified_base 3,5,7,9,11,13,15,17,19,21,22,23,24,26 /mod_base = “2′-O-methyl corresponding nucleoside”; modified_base 8 /mod_base = “2′-3′ seco corresponding nucleotide”; modified_base 2,3,23,; Hif2alpha RNAi agent sense strand; modified_base 2,4 modified base = “2′-hydroxy corresponding nucleoside”; modified_base 6,8,10,12,14,16,18,20,22,24,26 /mod_base = “2′-deoxy-2′-fluoro correspondi)
[2]
  Relative Expression day 4 (Hif2α mRNA in kidney tumor): 0.58
